Experimental data as given in patent US9623030B2, “Tumescent antibiotic solution” (priority 2004, dated 2017).
≈ marks a conversion by molar mass, not a printed value.

How the values were obtained:
[1] = 1 gm given at the end of the surgery; 405 abdominal surgery patients; cited from earlier work
[2] = tested on: platelet aggregation; conditions: cited from earlier work
[3] = cited from earlier work
[4] = tested on: S. aureus; conditions: effect increases with greater duration of exposure; cited from earlier work
[5] = tested on: Staphyloccus aureus (MRSA) ATCC 33592; assay: Minimum Inhibitory Concentration (MIC) by dilution; conditions: Staphylococcus aureus, read-out: MIC
Method: Following inoculation, survival of test microorganisms was determined.

[6] = female, human, in vivo
Method: A clinical pharmacologic investigation was conducted to compare the pharmacokinetic advantages of two modes of systemic antibiotic delivery, Tumescent antibiotic delivery (TAD), which involves the delivery of a relatively large volume of an antibiotic-containing solution to the subcutaneous compartment, and intravenous antibiotic delivery (IVAD), which results in direct delivery of antibiotics to the blood stream, for prophylaxis of SSI.
With Institutional Review Board (IRB) approval, the absorption pharmacokinetics of tumescent antibiotic delivery (TAD) and intravenous antibiotic delivery (IVAD) were tested in human subjects and the antibiotic delivery modes were evaluated with respect to the area under the curve (AUC) of antibiotic concentration as a function of time and peak antibiotic concentration (Cmax) in serum and TISF. 4 female subjects participated in at least one study, one subject volunteered for 2 separate studies. 5 studies were conducted: 3 involved TAD to the abdomen, 1 involved TAD to the hips and outer thighs and 1 involved TAD to the breasts. […] Each of the 5 studies consisted of 2 to 3 pharmacokinetic procedures, for a total of 14 procedures. Any procedures conducted on an individual subject were separated by at least one week. In 13 procedures only IVAD or TAD, was used. […]

O=C(Cc1cccs1)N[C@@H]1C(=O)N2C(C(=O)[O-])=C(C[n+]3ccccc3)CS[C@H]12 [cephaloridine]
incidence of wound infection, intravenous vs intra incisional [1]: no significant difference

CCN(CC)CC(=O)Nc1c(C)cccc1C [Lidocaine]
lidocaine concentration consistently inhibiting in-vitro platelet aggregation ([2]; aggregation induced by ADP, epinephrine and collagen): ≥ 0.5 mg/mL | effect on platelet aggregation ([2]; safe systemic concentrations (≦6 micrograms/ml)): no effect | maximum safe mg/kg dosage of tumescent lidocaine (estimated) ([3]; adults, TLA without liposuction): 30 mg/kg | dosage limitation approved by the FDA for infiltration local anesthesia ([3]; commercial lidocaine (1%) with epinephrine (1:100,000)): 7 mg/kg | duration of local anesthesia ([3]; routine local anesthesia): 2 h | bactericidal effect in vitro [4]: bactericidal

Cc1nnc(SCC2=C(C(=O)O)N3C(=O)[C@@H](NC(=O)Cn4cnnn4)[C@H]3SC2)s1 [Cefazolin]
MIC [5]: 125 to 250 µg/mL (≈ 275 to 550 µM)

Cc1ncc([N+](=O)[O-])n1CCO [Metronidazole]
interval in which serum concentration of metronidazole exceeded 4 μg/ml [6]: 0 to 12 h
